ChEMBL document CHEMBL1136051, “Synthesis and antiproliferative activity of a new compound containing an alpha-methylene-gamma-lactone group” (J Med Chem, 2002)

Columns and labels:
HL-60 [1] = assay: Concentration required for endonucleolytic DNA cleavage in HL-60 cells; format: functional, cell-based; details: Homo sapiens
HL-60 [2] = assay: In vitro antiproliferative activity against HL-60 myeloid leukemia HL-60 cells in culture; format: functional, cell-based; details: Homo sapiens

IC50 (HL-60 [2]): 4 µM
SMILES: C=C1C(=O)O[C@H](CCc2ccc(OC)cc2)[C@H]1C
Concentration (HL-60 [1]): 5 µM
